The text below walks through data of ChEMBL document CHEMBL4330083, “Synthesis and evaluation of isoprenylation-resveratrol dimer derivatives against Alzheimer's disease” (Eur J Med Chem, 2019).

Molecules are shown by their SMILES.

Holding throughout (type): functional
Assay [1] deals with PC-12. In words: Neuroprotection against H2O2-induced oxidative damage in rat PC12 cells assessed as reduction in ROS production by measuring mean fluorescence intensity at 10 uM preincubated for 4 hrs followed by H2O2 addition measured after 24 hrs by DCFH-DA staining-based flow cytometric analysis (reference value: 82616). In general terms: A flow cytometer gives signals particle by particle.

Assay [2] concerns PC-12. In words: Neuroprotection against H2O2-induced oxidative damage in rat PC12 cells assessed as mitochondrial membrane potential at 2.5 uM after 24 hrs in presence of H2O2 by Jc-1 staining based flow cytometric analysis (reference value: 16.35 +/- 3.19%).
Assay [3] deals with PC-12. In words: Neuroprotection against H2O2-induced oxidative damage in rat PC12 cells assessed as mitochondrial membrane potential at 10 uM after 24 hrs in presence of H2O2 by Jc-1 staining based flow cytometric analysis (reference value: 16.35 +/- 3.19%).
In assay [4] the test system is PC-12. Kind of assay: Neuroprotection against H2O2-induced oxidative damage in rat PC12 cells assessed as early apoptotic cells at 10 uM after 24 hrs in presence of H2O2 by annexin V-FITC/propidium iodide staining based flow cytometric analysis (reference value: 2.1%).
Assay [5] has as its system PC-12. In words: Neuroprotection against H2O2-induced oxidative damage in rat PC12 cells assessed as reduction in ROS production by measuring mean fluorescence intensity at 2.5 uM preincubated for 4 hrs followed by H2O2 addition measured after 24 hrs by DCFH-DA staining-based flow cytometric analysis (reference value: 82616).
Assay [6] concerns PC-12. Kind of assay: Neuroprotection against H2O2-induced oxidative damage in rat PC12 cells assessed as viable cells at 2.5 uM after 24 hrs in presence of H2O2 by annexin V-FITC/propidium iodide staining based flow cytometric analysis (reference value: 63.6%). As to conditions: PC-12, 24 h, read-out: Activity.
Assay [7] is described as follows: Neuroprotection against LPS-induced inflammation in […] cells assessed as reduction in ROS production by measuring mean fluorescence intensity at 10 uM after 18 hrs by DCFH-DA staining-based flow cytometric analysis (reference value: 70385).
Assay [8] in a line: Neuroprotection against H2O2-induced inflammation in […] cells assessed as reduction in ROS production by measuring mean fluorescence intensity at 5 uM after 18 hrs by DCFH-DA staining-based flow cytometric analysis (reference value: 11273).
Assay [9] has as its system PC-12. In words: Neuroprotection against H2O2-induced oxidative damage in rat PC12 cells assessed as early apoptotic cells at 2.5 uM after 24 hrs in presence of H2O2 by annexin V-FITC/propidium iodide staining based flow cytometric analysis (reference value: 2.1%).
The nature of assay [10]: Neuroprotection against H2O2-induced inflammation in […] cells assessed as reduction in ROS production by measuring mean fluorescence intensity at 2.5 uM after 18 hrs by DCFH-DA staining-based flow cytometric analysis (reference value: 11273).
Assay [11] can be described thus: Neuroprotection against H2O2-induced inflammation in […] cells assessed as reduction in ROS production by measuring mean fluorescence intensity at 10 uM after 18 hrs by DCFH-DA staining-based flow cytometric analysis (reference value: 11273).
The test system of assay [12] is PC-12. Kind of assay: Neuroprotection against H2O2-induced oxidative damage in rat PC12 cells assessed as intracellular Ca2+ level by measuring mean fluorescence intensity at 2.5 uM after 24 hrs in presence of H2O2 by Fluo-3/AM staining based flow cytometric analysis (reference value: 43156).
The subject of assay [13] is PC-12. In words: Neuroprotection against H2O2-induced oxidative damage in rat PC12 cells assessed as mitochondrial membrane potential at 5 uM after 24 hrs in presence of H2O2 by Jc-1 staining based flow cytometric analysis (reference value: 16.35 +/- 3.19%).
In assay [14] the test system is PC-12. In words: Neuroprotection against H2O2-induced oxidative damage in rat PC12 cells assessed as necrotic cells at 10 uM after 24 hrs in presence of H2O2 by annexin V-FITC/propidium iodide staining based flow cytometric analysis (reference value: 0.4%).
The nature of assay [15]: Neuroprotection against LPS-induced inflammation in […] cells assessed as reduction in ROS production by measuring mean fluorescence intensity at 5 uM after 18 hrs by DCFH-DA staining-based flow cytometric analysis (reference value: 56792).
For assay [16], the system named is PC-12. In words: Neuroprotection against H2O2-induced oxidative damage in rat PC12 cells assessed as necrotic cells at 5 uM after 24 hrs in presence of H2O2 by annexin V-FITC/propidium iodide staining based flow cytometric analysis (reference value: 0.4%).
Assay [17] deals with PC-12. Kind of assay: Neuroprotection against H2O2-induced oxidative damage in rat PC12 cells assessed as intracellular Ca2+ level by measuring mean fluorescence intensity at 2.5 uM after 24 hrs in presence of H2O2 by Fluo-3/AM staining based flow cytometric analysis (reference value: 51697).
Assay [18] can be described thus: Neuroprotection against LPS-induced inflammation in human BV2 cells assessed as reduction in ROS production by measuring mean fluorescence intensity at 2.5 uM after 18 hrs by DCFH-DA staining-based flow cytometric analysis (reference value: 56792).
Assay [19] is described as follows: Neuroprotection against H2O2-induced inflammation in human BV2 cells assessed as reduction in ROS production by measuring mean fluorescence intensity at 2.5 uM after 18 hrs by DCFH-DA staining-based flow cytometric analysis (reference value: 20004).
In assay [20] the test system is PC-12. In words: Neuroprotection against H2O2-induced oxidative damage in rat PC12 cells assessed as intracellular Ca2+ level by measuring mean fluorescence intensity at 5 uM after 24 hrs in presence of H2O2 by Fluo-3/AM staining based flow cytometric analysis (reference value: 51697).
The test system of assay [21] is PC-12. In words: Neuroprotection against H2O2-induced oxidative damage in rat PC12 cells assessed as necrotic cells at 2.5 uM after 24 hrs in presence of H2O2 by annexin V-FITC/propidium iodide staining based flow cytometric analysis (reference value: 0.4%).
A short description of assay [22]: Neuroprotection against LPS-induced inflammation in human BV2 cells assessed as reduction in ROS production by measuring mean fluorescence intensity at 10 uM after 18 hrs by DCFH-DA staining-based flow cytometric analysis (reference value: 56792).
Assay [23] deals with PC-12. In words: Neuroprotection against H2O2-induced oxidative damage in rat PC12 cells assessed as early apoptotic cells at 2.5 uM after 24 hrs in presence of H2O2 by annexin V-FITC/propidium iodide staining based flow cytometric analysis (reference value: 29.3%).
The subject of assay [24] is PC-12. In words: Neuroprotection against H2O2-induced oxidative damage in rat PC12 cells assessed as viable cells at 10 uM after 24 hrs in presence of H2O2 by annexin V-FITC/propidium iodide staining based flow cytometric analysis (reference value: 64.1%). The settings on record: PC-12, 24 h, read-out: Activity.
Assay [25] has as its system PC-12. Kind of assay: Neuroprotection against H2O2-induced oxidative damage in rat PC12 cells assessed as early apoptotic cells at 10 uM after 24 hrs in presence of H2O2 by annexin V-FITC/propidium iodide staining based flow cytometric analysis (reference value: 29.3%).
Assay [26] concerns PC-12. In words: Neuroprotection against H2O2-induced oxidative damage in rat PC12 cells assessed as late apoptotic cells at 2.5 uM after 24 hrs in presence of H2O2 by annexin V-FITC/propidium iodide staining based flow cytometric analysis (reference value: 6.2%).
Assay [27] deals with PC-12. Kind of assay: Neuroprotection against H2O2-induced oxidative damage in rat PC12 cells assessed as late apoptotic cells at 10 uM after 24 hrs in presence of H2O2 by annexin V-FITC/propidium iodide staining based flow cytometric analysis (reference value: 6.2%).

As for `CC(C)=CCc1c(O)cc(/C=C/c2ccc3c(c2)[C@H](c2cc(O)c4c(c2)OC(C)(C)CC4)[C@@H](c2ccc(O)cc2)O3)cc1O`, the Flu intensity in assay [1] worked out at 56274; in [5], 61043; in assay [7], 43811; in assay [8], 9218; in [10] it was 11086; in assay [11] it was 7407. For the same compound, the Flu intensity in assay [12] is 40869. Further, the Activity in [2] is listed as 42.34%; in [3] it was 83.23%; in assay [4], 1.9%; in assay [9], 2.1%; in assay [13] it was 68.51%. In [6], the viability at 2.5 µM was found to be 68%.

As for `CC(C)=CCc1c(O)cc(/C=C/c2ccc3c(c2)[C@H](c2cc(O)c(CC=C(C)C)c(O)c2)[C@@H](c2ccc(O)cc2)O3)cc1O`, the Activity in assay [14] is on record as 0.7%; in assay [16], 0.7%; in [21], 0.4%; in [23], 19.4%; in [25], 10.3%; in assay [26] it was 4.2%. In addition, the Activity in assay [27] stood at 0.7%. Further, the Flu intensity is recorded as 28450 in assay [15]; 40059 in assay [17]; 31340 in assay [18]; 14563 in assay [19]; 38796 in assay [20]; 24076 in assay [22]. Further, in [24], the viability at 10 µM turned out to be 88.4%.
